Experimental data as given in patent US8758816B2, “Compositions comprising azelastine and methods of use thereof” (priority 2004, dated 2014).

System: patients with seasonal allergic rhinitis (SAR)
Assay: MP 428 study: individual symptom severity scores (runny nose, itchy nose, sneezing, congestion; 0-3 scale)
Type: in vivo, human
Settings: Intent-to-Treat Population
Method: A two-week, randomized, double-blind study, which evaluated the effects of the co-administration of ASTELIN® (azelastine hydrochloride (HCl)) and FLONASE® (fluticasone propionate) compared to either product alone in patients with seasonal allergic rhinitis (SAR) was conducted during the 2006 Texas mountain cedar season. After a 5-day placebo lead-in period, 151 patients with moderate-to-severe allergic rhinitis symptoms were randomized to either: (1) (49 total patients) ASTELIN® (azelastine hydrochloride (HCl)) plus placebo saline nasal spray 2 sprays per nostril, 15 minutes apart, twice daily (AM & PM); (2) (50 total patients) FLONASE® (fluticasone propionate) plus placebo saline nasal spray, 2 sprays per nostril, 15 minutes apart, once daily (AM) and two sessions of placebo saline nasal spray, 2 sprays per nostril, 15 minutes apart (PM); or (3) (52 total patients) the co-administration of ASTELIN® (azelastine hydrochloride (HCl)) 2 sprays per nostril plus FLONASE® (fluticasone propionate) 2 sprays per nostril (AM), 15 minutes apart, and ASTELIN® (azelastine hydrochloride (HCl)) 2 sprays per nostril plus placebo saline nasal spray, 15 minutes apart, (PM) for a 2-week double-blind treatment period.
The primary efficacy variable was the change from baseline in the Total Nasal Symptom Score (TNSS), which comprised sneezing, itchy nose, runny nose, and nasal congestion (individual symptoms scores were assigned a value between 0 and 3, where 0=no symptoms and 3=severe symptoms). This study was not statistically designed to assess the differences between ASTELIN® and FLONASE®.
The results of the clinical trial are summarized and presented in Appendix A hereinbelow and in FIGS. 1-6. […] FIGS. 2-5 show the mean improvement in severity score (0-3 scale) from baseline for the symptoms of runny nose, itchy nose, sneezing and congestion, respectively.

`CCC(=O)O[C@]1(C(=O)SCF)[C@H](C)C[C@H]2[C@@H]3C[C@H](F)C4=CC(=O)C=C[C@]4(C)[C@@]3(F)[C@@H](O)C[C@@]21C` [Fluticasone, fluticasone propionate] was tested, and the “Change from Baseline in AM and PM Combined Nasal Symptom Score: Congestion, LS Mean” value (Day 2) was −0.59, the “Change from Baseline in AM and PM Combined Nasal Symptom Score: Congestion, Mean” value (Day 2) was −0.65 and the “Change from Baseline in AM and PM Combined Nasal Symptom Score: Congestion, Median” value (Day 2) was −0.30. For the same compound, the “Change from Baseline in AM and PM Combined Nasal Symptom Score: Itchy Nose, LS Mean” value (Day 2) was −0.61, the “Change from Baseline in AM and PM Combined Nasal Symptom Score: Itchy Nose, Mean” value (Day 2) was −0.66 and the “Change from Baseline in AM and PM Combined Nasal Symptom Score: Itchy Nose, Median” value (Day 2) was −0.40. For the same compound, the “Change from Baseline in AM and PM Combined Nasal Symptom Score: Runny Nose, LS Mean” value (Day 2) was −0.86, the “Change from Baseline in AM and PM Combined Nasal Symptom Score: Runny Nose, Mean” value (Day 2) was −0.90 and the “Change from Baseline in AM and PM Combined Nasal Symptom Score: Runny Nose, Median” value (Day 2) was −1.00. For the same compound, the “Change from Baseline in AM and PM Combined Nasal Symptom Score: Sneezing, LS Mean” value (Day 2) was −1.06, the “Change from Baseline in AM and PM Combined Nasal Symptom Score: Sneezing, Mean” value (Day 2) was −1.03 and the “Change from Baseline in AM and PM Combined Nasal Symptom Score: Sneezing, Median” value (Day 2) was −1.00. The “Percent Change from Baseline in AM and PM Combined Nasal Symptom Score: Congestion, LS Mean” value (from here on “Percent Change … Congestion, LS Mean”) (Day 2) was −10.84%, the “Percent Change from Baseline in AM and PM Combined Nasal Symptom Score: Congestion, Mean” value (shortened to “Percent Change from Baseline … Congestion, Mean”) (Day 2) was −11.97% and the “Percent Change from Baseline in AM and PM Combined Nasal Symptom Score: Congestion, Median” value (shortened to “Percent Change … Congestion, Median”) (Day 2) was −5.66%. The “Percent Change from Baseline in AM and PM Combined Nasal Symptom Score: Itchy Nose, LS Mean” value (shortened to “Percent Change … Itchy Nose, LS Mean”) (Day 2) was −12.72%, the “Percent Change from Baseline in AM and PM Combined Nasal Symptom Score: Itchy Nose, Mean” value (“Percent Change from Baseline … Itchy Nose, Mean” below) (Day 2) was −14.27% and the “Percent Change from Baseline in AM and PM Combined Nasal Symptom Score: Itchy Nose, Median” value (“Percent Change … Itchy Nose, Median” for short) (Day 2) was −8.39%. The “Percent Change from Baseline in AM and PM Combined Nasal Symptom Score: Runny Nose, LS Mean” value (from here on “Percent Change … Runny Nose, LS Mean”) (Day 2) was −12.11%, the “Percent Change from Baseline in AM and PM Combined Nasal Symptom Score: Runny Nose, Mean” value (shortened to “Percent Change from Baseline … Runny Nose, Mean”) (Day 2) was −12.95% and the “Percent Change from Baseline in AM and PM Combined Nasal Symptom Score: Runny Nose, Median” value (shortened to “Percent Change … Runny Nose, Median”) (Day 2) was −16.67%. The “Percent Change from Baseline in AM and PM Combined Nasal Symptom Score: Sneezing, LS Mean” value (shortened to “Percent Change from Baseline … Sneezing, LS Mean”) (Day 2) was −22.64%, the “Percent Change from Baseline in AM and PM Combined Nasal Symptom Score: Sneezing, Mean” value (“Percent Change from Baseline … Sneezing, Mean” below) (Day 2) was −22.69% and the “Percent Change from Baseline in AM and PM Combined Nasal Symptom Score: Sneezing, Median” value (shortened to “Percent Change from Baseline … Sneezing, Median”) (Day 2) was −16.67%. The “Change from Baseline in AM and PM Combined Nasal Symptom Score: Congestion, LS Mean” value (Day 3) was −0.81, the “Change from Baseline in AM and PM Combined Nasal Symptom Score: Congestion, Mean” value (Day 3) was −0.90 and the “Change from Baseline in AM and PM Combined Nasal Symptom Score: Congestion, Median” value (Day 3) was −0.67. For the same compound, the “Change from Baseline in AM and PM Combined Nasal Symptom Score: Itchy Nose, LS Mean” value (Day 3) was −0.99, the “Change from Baseline in AM and PM Combined Nasal Symptom Score: Itchy Nose, Mean” value (Day 3) was −0.97 and the “Change from Baseline in AM and PM Combined Nasal Symptom Score: Itchy Nose, Median” value (Day 3) was −0.67. The “Change from Baseline in AM and PM Combined Nasal Symptom Score: Runny Nose, LS Mean” value (Day 3) was −0.96, the “Change from Baseline in AM and PM Combined Nasal Symptom Score: Runny Nose, Mean” value (Day 3) was −1.05 and the “Change from Baseline in AM and PM Combined Nasal Symptom Score: Runny Nose, Median” value (Day 3) was −0.80. For the same compound, the “Change from Baseline in AM and PM Combined Nasal Symptom Score: Sneezing, LS Mean” value (Day 3) was −1.29, the “Change from Baseline in AM and PM Combined Nasal Symptom Score: Sneezing, Mean” value (Day 3) was −1.21 and the “Change from Baseline in AM and PM Combined Nasal Symptom Score: Sneezing, Median” value (Day 3) was −1.00. The “Percent Change … Congestion, LS Mean” value (Day 3) was −15.34%, the “Percent Change from Baseline … Congestion, Mean” value (Day 3) was −16.63% and the “Percent Change … Congestion, Median” value (Day 3) was −11.76%. For the same compound, the “Percent Change … Itchy Nose, LS Mean” value (Day 3) was −22.88%, the “Percent Change from Baseline … Itchy Nose, Mean” value (Day 3) was −22.41% and the “Percent Change … Itchy Nose, Median” value (Day 3) was −15.32%. The “Percent Change … Runny Nose, LS Mean” value (Day 3) was −17.15%, the “Percent Change from Baseline … Runny Nose, Mean” value (Day 3) was −18.81% and the “Percent Change … Runny Nose, Median” value (Day 3) was −13.79%. For the same compound, the “Percent Change from Baseline … Sneezing, LS Mean” value (Day 3) was −29.62%, the “Percent Change from Baseline … Sneezing, Mean” value (Day 3) was −28.44% and the “Percent Change from Baseline … Sneezing, Median” value (Day 3) was −30.09%. For the same compound, the “Change from Baseline in AM and PM Combined Nasal Symptom Score: Congestion, LS Mean” value (Day 4) was −1.00, the “Change from Baseline in AM and PM Combined Nasal Symptom Score: Congestion, Mean” value (Day 4) was −1.06 and the “Change from Baseline in AM and PM Combined Nasal Symptom Score: Congestion, Median” value (Day 4) was −1.00. The “Change from Baseline in AM and PM Combined Nasal Symptom Score: Itchy Nose, LS Mean” value (Day 4) was −0.98, the “Change from Baseline in AM and PM Combined Nasal Symptom Score: Itchy Nose, Mean” value (Day 4) was −0.97 and the “Change from Baseline in AM and PM Combined Nasal Symptom Score: Itchy Nose, Median” value (Day 4) was −0.90. For the same compound, the “Change from Baseline in AM and PM Combined Nasal Symptom Score: Runny Nose, LS Mean” value (Day 4) was −1.12, the “Change from Baseline in AM and PM Combined Nasal Symptom Score: Runny Nose, Mean” value (Day 4) was −1.17 and the “Change from Baseline in AM and PM Combined Nasal Symptom Score: Runny Nose, Median” value (Day 4) was −1.15. The “Change from Baseline in AM and PM Combined Nasal Symptom Score: Sneezing, LS Mean” value (Day 4) was −1.42, the “Change from Baseline in AM and PM Combined Nasal Symptom Score: Sneezing, Mean” value (Day 4) was −1.33 and the “Change from Baseline in AM and PM Combined Nasal Symptom Score: Sneezing, Median” value (Day 4) was −1.10. The “Percent Change … Congestion, LS Mean” value (Day 4) was −18.75%, the “Percent Change from Baseline … Congestion, Mean” value (Day 4) was −19.51% and the “Percent Change … Congestion, Median” value (Day 4) was −16.67%. For the same compound, the “Percent Change … Itchy Nose, LS Mean” value (Day 4) was −20.59%, the “Percent Change from Baseline … Itchy Nose, Mean” value (Day 4) was −20.31% and the “Percent Change … Itchy Nose, Median” value (Day 4) was −16.67%. For the same compound, the “Percent Change … Runny Nose, LS Mean” value (Day 4) was −17.17%, the “Percent Change from Baseline … Runny Nose, Mean” value (Day 4) was −18.21% and the “Percent Change … Runny Nose, Median” value (Day 4) was −22.33%. The “Percent Change from Baseline … Sneezing, LS Mean” value (Day 4) was −31.80%, the “Percent Change from Baseline … Sneezing, Mean” value (Day 4) was −30.67% and the “Percent Change from Baseline … Sneezing, Median” value (Day 4) was −27.36%. For the same compound, the “Change from Baseline in AM and PM Combined Nasal Symptom Score: Congestion, LS Mean” value (Day 5) was −1.00, the “Change from Baseline in AM and PM Combined Nasal Symptom Score: Congestion, Mean” value (Day 5) was −1.06 and the “Change from Baseline in AM and PM Combined Nasal Symptom Score: Congestion, Median” value (Day 5) was −0.83. The “Change from Baseline in AM and PM Combined Nasal Symptom Score: Itchy Nose, LS Mean” value (Day 5) was −1.16, the “Change from Baseline in AM and PM Combined Nasal Symptom Score: Itchy Nose, Mean” value (Day 5) was −1.15 and the “Change from Baseline in AM and PM Combined Nasal Symptom Score: Itchy Nose, Median” value (Day 5) was −1.00. The “Change from Baseline in AM and PM Combined Nasal Symptom Score: Runny Nose, LS Mean” value (Day 5) was −1.42, the “Change from Baseline in AM and PM Combined Nasal Symptom Score: Runny Nose, Mean” value (Day 5) was −1.43 and the “Change from Baseline in AM and PM Combined Nasal Symptom Score: Runny Nose, Median” value (Day 5) was −1.05. The “Change from Baseline in AM and PM Combined Nasal Symptom Score: Sneezing, LS Mean” value (Day 5) was −1.61, the “Change from Baseline in AM and PM Combined Nasal Symptom Score: Sneezing, Mean” value (Day 5) was −1.52 and the “Change from Baseline in AM and PM Combined Nasal Symptom Score: Sneezing, Median” value (Day 5) was −1.33.
